Measurements reported in the NIST ThermoML archive (doi:10.1016/j.jct.2017.01.016).

Assay: xn = mol fraction of the nth substance listed
Conditions: 101 kPa, Liquid; for viscosity: Capillary tube (Ostwald / Ubbelohde) method; for speed of sound: Frequency=3 MHz, Linear variable-path acoustic interferometer

C1COCCO1 [1,4-dioxane] + Cc1ccccc1
Conditions	speed of sound [m/s]	viscosity [mPa·s]
293.15 K, x1 = 0.0688	1330.1	0.6346
293.15 K, x1 = 0.1373	1331.5	0.6812
293.15 K, x1 = 0.2112	1333	0.732
293.15 K, x1 = 0.2858	1334.8	0.784
293.15 K, x1 = 0.3552	1336.5	0.8327
293.15 K, x1 = 0.4361	1338.6	0.8901
293.15 K, x1 = 0.5064	1340.7	0.9405
293.15 K, x1 = 0.5819	1343.2	0.9951
293.15 K, x1 = 0.6506	1346	1.045
293.15 K, x1 = 0.7212	1349.1	1.097
293.15 K, x1 = 0.7903	1352.5	1.148
293.15 K, x1 = 0.864	1356.9	1.203
293.15 K, x1 = 0.9336	1361.8	1.256
293.15 K, x1 = 1	1367.2	1.306
298.15 K, x1 = 0.0688	1308.4	0.5952
298.15 K, x1 = 0.1373	1309.5	0.6366
298.15 K, x1 = 0.2112	1310.9	0.682
298.15 K, x1 = 0.2858	1312.4	0.7282
298.15 K, x1 = 0.3552	1313.9	0.7716
298.15 K, x1 = 0.4361	1315.9	0.8229
298.15 K, x1 = 0.5064	1317.9	0.8679
298.15 K, x1 = 0.5819	1320.4	0.9166
298.15 K, x1 = 0.6506	1323.2	0.9613
298.15 K, x1 = 0.7212	1326.3	1.008
298.15 K, x1 = 0.7903	1329.8	1.053
298.15 K, x1 = 0.864	1334.2	1.103
298.15 K, x1 = 0.9336	1339.1	1.15
298.15 K, x1 = 1	1344.7	1.195
303.15 K, x1 = 0.0688	1286.3	0.56
303.15 K, x1 = 0.1373	1287.2	0.597
303.15 K, x1 = 0.2112	1288.4	0.6373
303.15 K, x1 = 0.2858	1289.7	0.6785
303.15 K, x1 = 0.3552	1291.2	0.7173
303.15 K, x1 = 0.4361	1293.2	0.7631
303.15 K, x1 = 0.5064	1295.2	0.8033
303.15 K, x1 = 0.5819	1297.8	0.8469
303.15 K, x1 = 0.6506	1300.6	0.887
303.15 K, x1 = 0.7212	1303.9	0.9286
303.15 K, x1 = 0.7903	1307.5	0.9696
303.15 K, x1 = 0.864	1312.2	1.014
303.15 K, x1 = 0.9336	1317.3	1.056
303.15 K, x1 = 1	1323.1	1.096
308.15 K, x1 = 0.0688	1264.8	0.5284
308.15 K, x1 = 0.1373	1265.5	0.5619
308.15 K, x1 = 0.2112	1266.5	0.5984
308.15 K, x1 = 0.2858	1267.7	0.6357
308.15 K, x1 = 0.3552	1269	0.6709
308.15 K, x1 = 0.4361	1270.9	0.7124
308.15 K, x1 = 0.5064	1272.9	0.7489
308.15 K, x1 = 0.5819	1275.4	0.7885
308.15 K, x1 = 0.6506	1278.2	0.8249
308.15 K, x1 = 0.7212	1281.6	0.8627
308.15 K, x1 = 0.7903	1285.3	0.8998
308.15 K, x1 = 0.864	1290.1	0.9399
308.15 K, x1 = 0.9336	1295.3	0.978
308.15 K, x1 = 1	1301.2	1.014
313.15 K, x1 = 0.0688	1242.8	0.4969
313.15 K, x1 = 0.1373	1243.4	0.5278
313.15 K, x1 = 0.2112	1244.3	0.5615
313.15 K, x1 = 0.2858	1245.4	0.596
313.15 K, x1 = 0.3552	1246.7	0.6284
313.15 K, x1 = 0.4361	1248.6	0.6666
313.15 K, x1 = 0.5064	1250.6	0.7003
313.15 K, x1 = 0.5819	1253.2	0.7368
313.15 K, x1 = 0.6506	1256	0.7702
313.15 K, x1 = 0.7212	1259.4	0.805
313.15 K, x1 = 0.7903	1263.3	0.8393
313.15 K, x1 = 0.864	1268.2	0.8762
313.15 K, x1 = 0.9336	1273.6	0.9114
313.15 K, x1 = 1	1279.7	0.945
318.15 K, x1 = 0.0688	1221	0.467
318.15 K, x1 = 0.1373	1221.5	0.4958
318.15 K, x1 = 0.2112	1222.3	0.5272
318.15 K, x1 = 0.2858	1223.3	0.5593
318.15 K, x1 = 0.3552	1224.6	0.5895
318.15 K, x1 = 0.4361	1226.5	0.6251
318.15 K, x1 = 0.5064	1228.6	0.6564
318.15 K, x1 = 0.5819	1231.2	0.6903
318.15 K, x1 = 0.6506	1234.1	0.7215
318.15 K, x1 = 0.7212	1237.6	0.7539
318.15 K, x1 = 0.7903	1241.6	0.7857
318.15 K, x1 = 0.864	1246.7	0.82
318.15 K, x1 = 0.9336	1252.3	0.8527
318.15 K, x1 = 1	1258.6	0.884
